Experimental data as given in article PMC4178217, “Quinoline 3-sulfonamides inhibit lactate dehydrogenase A and reverse aerobic glycolysis in cancer cells” (Cancer & Metabolism, 2013).

Assays:
[1] = test system: Snu398 cells; experiment: 13C NMR spectroscopy of glucose consumption and lactate production, Snu398; assay type: cell-based, human
Description: (§1) After this pre-incubation, cells were washed in PBS and resuspended in 400 μL of glucose-free RPMI supplemented with 10% deuterium oxide, 11 mM D-(1,6-^13C2)glucose, and LDHA inhibitor or DMSO. An additional 600 μL of the same medium was gently added to top off the resuspended cells. Five mm NMR tubes with reduced sample depth (Shigemi Inc, Allison Park, PA, USA) were used to ensure that the cells remain inside the active volume of the receiver coil of the probe. […] . Prior to Fourier transformation, sensitivity and resolution were enhanced by applying an exponential line-broadening of 1 Hz over the first 32,000 data points and then zero filled to 256,000 data points. Spectra were analyzed using in-house data analysis software.

[2] = test system: Snu398 cells; experiment: Compound cellular permeability assay, whole-cell extract; assay type: in vitro ADME, human; conditions: Snu398 treated with 1 μM for 1.5 h
Description: Compound cellular permeability assays For cytosolic permeability assay, twelve million Snu398 cells were allowed to attach overnight and treated with DMSO control or 1 µM Compound 2 for 1.5 h in 1.7 mM glucose medium. The medium was removed, cells were washed in phosphate-buffered saline (PBS), and cytosolic extracts were prepared by solubilization in Qproteome lysis buffer (Qiagen, Valencia, CA). For whole-cell permeability assay, 75,000 Snu398 cells/well were plated in 96-well plates and treated with DMSO control or 1 µM compounds for 1.5h in low glucose medium. The medium was removed, cells were washed in PBS and solubilized in 50:50 mixture of methanol and acetonitrile. Compound concentration in the cytosolic or whole-cell extract was determined by LC/MS/MS analysis. An Acquity UPLC system (Waters Inc., Milford, MA) was coupled to an API 4000 or API 5000 triple-quad mass spectrometer (Applied Biosystems). […] Compound concentration in cells was determined by counting the number of cells in sample wells and assuming 3 pL/cell volume.

[3] = test system: PKM2 in Snu398 cells; experiment: PKM2 tetramerization (native gel, western immunoblotting); assay type: cell-based, human; conditions: Snu398, 6 h
Description: (§2) One and a half million cells per well were plated in 6-well tissue culture plates in R10 medium and allowed to attach overnight. The following morning, cells were washed and medium replaced with 2 mL/well of low-glucose medium. DMSO control or the indicated doses of LDHA inhibitor dissolved in DMSO were added to the wells and cells were incubated at 37°C for 6 h. Following the incubation, cells were washed, scraped into 200 μl of distilled de-ionized water and homogenized on ice using OMNI THq homogenizer (Omni International, Kennesaw, GA, USA). Homogenates were cleared by centrifugation and protein concentration measured by bicinchoninic acid (BCA) assay (Thermo Fisher Scientific, Waltham, MA, USA). PK activity was determined using PK Activity kit (BioVision Research Products) per manufacturer’s instructions and normalized to protein concentration. For detection of PKM2 oligomerization, the same protein samples were separated by non-denaturing gel electrophoresis using the NativePAGE™ gel system (Life Technologies), transferred onto polyvinylidene difluoride (PVDF) membranes and subjected to western immunoblotting with anti-PKM2 antibody.

[4] = test system: HCC1937 cells; experiment: ECAR after mitochondrial inhibition, breast cancer lines and HCC1937 isogenic shRNA lines; assay type: cell-based, human
Description: A2780 were obtained from the European Collection of Cell Cultures (ECACC, Porton Down, UK), IGROV-1 and U251 were from the National Cancer Institute (NCI, Bethesda, MD, USA), and all other cell lines were from American Type Culture Collection (ATCC, Manassas, VA, USA). The cell lines were authenticated as previously described. All cell lines were maintained in a 37°C 5% CO2-95% humidified air incubator. Breast cancer cell lines were cultured in DMEM (Life Technologies, Carlsbad, CA, USA) supplemented with 5% FBS (Sigma-Aldrich, St. Louis, MO, USA). All other cell lines were maintained in R10 medium (Roswell Park Memorial Institute medium (RPMI)-1640 (Life Technologies) supplemented with 10% FBS). MCF10A cells were supplemented with additional cholera toxin (100 ng/mL), hydrocortisone ([…]), insulin (10 μg/mL), and epidermal growth factor (EGF) (20 ng/mL). […]
For XF96 experiments breast cancer cells were seeded in DMEM without bicarbonate at 16,000/well in XF96 V3 PET plates (Seahorse Biosciences) coated with CellTak (BD Biosciences, San Jose, CA, USA). […] The medium was exchanged with DMEM without bicarbonate prior to readings on the XF96 Analyzer (Seahorse Biosciences).

[5] = test system: MDA-MB-453 cells; experiment: Lactate production in normoxia/hypoxia, MDA-MB-453 (YSI analyzer); conditions: Homo sapiens, MDA-MB-453, 2 h, read-out: lactate production EC50 in hypoxia
[6] = test system: MDA-MB-453 cells; experiment: ECAR after rotenone/antimycin, MDA-MB-453 (Seahorse XF96); assay type: cell-based; conditions: Homo sapiens; MDA-MB-453, after rotenone/antimycin
Description: For XF96 experiments breast cancer cells were seeded in DMEM without bicarbonate at 16,000/well in XF96 V3 PET plates (Seahorse Biosciences) coated with CellTak (BD Biosciences, San Jose, CA, USA). […] HepG2 cells were seeded at 16K/well in XF96 V3 PET plates and left overnight for attachment. The medium was exchanged with DMEM without bicarbonate prior to readings on the XF96 Analyzer (Seahorse Biosciences).

[7] = test system: HepG2 cells; experiment: 13C NMR spectroscopy of glucose consumption and lactate production, HepG2; assay type: cell-based, human; conditions: HepG2, 10 μM
Description: as §1

[8] = test system: Snu398 cells; experiment: Pyruvate kinase (PK) activity, Snu398; assay type: cell-based; conditions: Homo sapiens, SNU-398; Snu398, 6 h
Description: as §2

[9] = molecular target: Glycogen synthase kinase 3b (Homo sapiens, UniProt P49841); experiment: Glycogen synthase kinase 3b ANT; assay type: biochemical; conditions: antagonist; read-out: pIC50 Glycogen synthase kinase 3b ANT (converted)
Excerpt: ANT = antagonist (pIC50), AG = agonist (pEC50). pIC50 and pEC50 are the negative logarithms10 of IC50 and EC50, respectively. Click here for file

[10] = test system: Snu398 cells; experiment: Compound cellular permeability assay, cytosolic extract; assay type: in vitro ADME, human; conditions: Snu398 treated with 1 μM for 1.5 h, LC/MS/MS
Description: The medium was removed, cells were washed in phosphate-buffered saline (PBS), and cytosolic extracts were prepared by solubilization in Qproteome lysis buffer (Qiagen, Valencia, CA). […] The medium was removed, cells were washed in PBS and solubilized in 50:50 mixture of methanol and acetonitrile. Compound concentration in the cytosolic or whole-cell extract was determined by LC/MS/MS analysis. An Acquity UPLC system (Waters Inc., Milford, MA) was coupled to an API 4000 or API 5000 triple-quad mass spectrometer (Applied Biosystems). […] Compound concentration in cells was determined by counting the number of cells in sample wells and assuming 3 pL/cell volume.

[11] = test system: Snu398 cells; experiment: Metabolomics analysis, Snu398 whole-cell extracts; assay type: cell-based, human; conditions: Snu398 whole-cell lysates, 10 μM, 24 h

Sequence of Glycogen synthase kinase 3b (P49841 whole entry): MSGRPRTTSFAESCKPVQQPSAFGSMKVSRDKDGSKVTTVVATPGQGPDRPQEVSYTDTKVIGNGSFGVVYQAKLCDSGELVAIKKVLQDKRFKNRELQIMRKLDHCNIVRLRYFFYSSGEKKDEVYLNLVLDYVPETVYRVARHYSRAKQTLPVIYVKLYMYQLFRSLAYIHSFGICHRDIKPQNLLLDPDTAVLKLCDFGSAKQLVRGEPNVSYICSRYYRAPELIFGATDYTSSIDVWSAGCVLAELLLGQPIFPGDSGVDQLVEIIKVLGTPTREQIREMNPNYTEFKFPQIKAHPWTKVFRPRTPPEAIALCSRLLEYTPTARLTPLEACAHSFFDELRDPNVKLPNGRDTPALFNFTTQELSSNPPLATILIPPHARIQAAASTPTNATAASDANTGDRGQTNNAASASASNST

Row | SMILES | (3-13C)lactate production ([1]; Snu398, 10 μM) | D-(1,6-13C2)glucose consumption ([1]; Snu398 versus HepG2, 10 μM) | apparent intracellular concentration versus medium [2] | PKM2 tetramerization [3] | sensitivity (ECAR) with LDHA knockdown ([4]; HCC1937 stable LDHA shRNA) | sensitivity (ECAR) with LDHB knockdown ([4]; HCC1937 stable LDHB shRNA) | EC50 [5] | EC50 [6] | (3-13C)lactate production [7] | EC50 [8] | IC50 [9] | apparent intracellular concentration (cytosolic extract) [10] | increase of cytosolic glycolysis intermediates [11]
1 | COc1ncc(-c2ccc3c(Nc4cc(Oc5cc(F)cc(F)c5)cc(C(=O)O)c4)c(S(=O)(=O)NC4CC4)cnc3c2)c(OC)n1 [Compound 1] | significantly slowed down lactate production | only affected glucose consumption in Snu398 cells | higher apparent intracellular concentrations than that of the medium | dose dependently promoted formation of the active tetrameric form of PKM2 | did not change their sensitivity | more sensitive | 10 µM | 10 µM | significantly slowed down lactate production | 0.6 µM |  |  | 
2 | COc1ncc(-c2ccc3c(Nc4cc(C(=O)O)cc(C5CCCC5)c4)c(S(=O)(=O)NC4CC4)cnc3c2)c(OC)n1 [Compound 2] |  |  |  |  |  |  |  |  |  |  | 31.6 µM | 18 µM | ≤ 40 fold
